We go through 1 compound from paper PMC8253140 (Drug Delivery, 2017).

In one test the test system is A549 tumor. The test is classed as in vivo, BALB/c nude mice. Conditions: A549 tumor-bearing nude mice, 1000 μM, 100 μL, peritumoral injection three times over 8 d. An excerpt: (§1) The protocol to evaluate the in vivo antitumor efficacy of the PTX-CPP conjugates was approved by the ethics committee of Fudan University. Four-week-old female BALB/c nude mice were purchased and housed in the Animal Care Facilities in the School of Pharmacy, Fudan University. BALB/c mice bearing subcutaneous tumors were used as an animal model for the evaluation of the anticancer activities of PTX-LMWP and PTX-TAT. The subcutaneous tumor xenograft model was established by inoculating 2 × 10^6 A549 or A549T cells (in 100 μL of cell culture medium) into the subcutaneous tissue of the armpit of the right anterior limb (Gu et al., [2014]). Tumor size was measured with Vernier calipers for the largest (length) and smallest (width) superficial visible diameters of the protruding tumor mass through the skin. Tumor volumes were calculated according to the following formula: volume = 0.52 × W^2×L, where W and L represent the width and the length, respectively (Lee et al., [2011]). The drugs were administered 2 weeks after tumor implantation, when the size of the tumors reached approximately 100–150 mm^3. […] Each experimental group contained six mice. The mice were treated (100 μL volume) three times over 8 d via peritumoral injection. Tumor volumes were measured at 2-d intervals. At the end of the experiment, the mice were sacrificed, and necropsies were performed. The tumors were removed, weighed and fixed with formalin.

In the next test the test system is A549T tumor. In kind it is in vivo, BALB/c nude mice. Conditions: A549T tumor-bearing nude mice, 1000 μM, 100 μL, peritumoral injection three times over 8 d.
Text: as §1

The test system of test [1] is A549T cells. Nature of the test: Cytotoxicity study, MTT colorimetric assay. In kind it is cell-based. Conditions: A549T cells, MTT, 24 h, concentrations below 1000 nM. In general terms: Tetrazolium assays rely on reduction of a dye to a coloured formazan, in cell work by metabolically active cells.
Description: The inhibitory activities of the drug samples on cell growth were evaluated using a 3-(4,5-dimethylthiazol-2-yl)-2,5-diphenyltetrazolium bromide (MTT) colorimetric assay. A549 and A549T cells were harvested by trypsinization and resuspended at a concentration of 2 × 10^4 cells/mL in fresh culture medium. Then, the cells were seeded at a density of 5000 cells per well in 96-well plates. […] The concentration of the drugs ranged from 0.1 μM to 100 μM. After 24 h of incubation, the drug-containing media were abandoned, and 20 μL of MTT (5 mg/mL) solution was added to each well. The plate was incubated for an additional 4 h, and then, 200 mL of DMSO was added to each well to dissolve any formed purple formazan crystals. The plates were vigorously shaken before measuring the relative color intensity. The absorbance at 570 nm of each well was measured with a plate reader.
Test [2] relates to A549 cells. Nature of the test: Cell-cycle analysis, PI flow cytometry. Conditions: 5 μM, 48 h, triplicate. The test is classed as cell-based. How it is done:
(§2) After that, the cells were harvested by trypsinization, washed in PBS twice, and fixed in 70% cold ethanol for 24 h at 4 °C. The fixed cells were washed in cold PBS and then resuspended in 0.5 mL of PBS containing 50 μg/mL PI, 0.1% Triton-X-100, 0.1% sodium citrate, and 100 μg/mL RNase. After incubation at 4 °C in the dark for 30 min, the fluorescence-activated cells were sorted. The cellular DNA content was analyzed by flow cytometry (Becton Dickinson, Franklin Lakes, NJ). Each analysis contained at least 10 000 cells. […] The percentages of cells in different cell cycle phases were then recorded. Each experiment was performed in triplicate, and the results were expressed as the mean ± SD.
A general note: Flow cytometry measures light scatter and fluorescence of single cells or particles in a stream.

In test [3] the test system is A549 cells. Nature of the test: Cell apoptosis detection, annexin V-FITC/PI flow cytometry. In kind it is cell-based. Conditions: 10 μM, 48 h, triplicate. How it is done:
Cell apoptosis was determined by an annexin V-FITC/PI assay. The externalization of phosphatidylserine, a result of early stage apoptosis, was detected by FITC-annexin V protein staining, and the membrane damage due to late-stage apoptosis was detected by the binding of PI to nuclear DNA. Briefly, 2 × 10^5 A549 and A549T cells were plated in 6-well plates and incubated for 24 h. After exposure to the different drugs at a concentration of 10 μM for 48 h, the cells were harvested by trypsinization, washed in PBS twice and incubated in the dark for 10 min at room temperature in 500 μL of binding buffer containing annexin V-FITC (1 μg/mL) and PI (1 μg/mL). The cells were immediately analyzed by flow cytometry (Becton Dickinson, Franklin Lakes, NJ). The fluorescence intensity of annexin V-FITC was measured at an excitation/emission wavelength of 488/530 nm and that of PI was measured at an excitation/emission wavelength of 488/617 nm. Approximately 10 000 cells were analyzed in each of the samples. Each assay was repeated in triplicate.

Test [4] concerns A549T cells. The test is classed as cell-based. Conditions: 5 μM, 48 h, triplicate. How it is done:
as §2

The subject of test [5] is A549 cells. Nature of the test: Cytotoxicity study, MTT colorimetric assay. Conditions: A549 cells, MTT, 24 h. How it is done:
The inhibitory activities of the drug samples on cell growth were evaluated using a 3-(4,5-dimethylthiazol-2-yl)-2,5-diphenyltetrazolium bromide (MTT) colorimetric assay. A549 and A549T cells were harvested by trypsinization and resuspended at a concentration of 2 × 10^4 cells/mL in fresh culture medium. Then, the cells were seeded at a density of 5000 cells per well in 96-well plates. […] The concentration of the drugs ranged from 0.1 μM to 100 μM. After 24 h of incubation, the drug-containing media were abandoned, and 20 μL of MTT (5 mg/mL) solution was added to each well. The plate was incubated for an additional 4 h, and then, […] of DMSO was added to each well to dissolve any formed purple formazan crystals. The plates were vigorously shaken before measuring the relative color intensity. The absorbance at 570 nm of each well was measured with a plate reader.

Setting [6] is: tumors dissected and weighed after 24 or 30 d, six mice per group.

Consider `CC(=O)O[C@H]1C(=O)[C@@]2(C)[C@H]([C@H](OC(=O)c3ccccc3)[C@]3(O)C[C@H](OC(=O)[C@H](O)[C@@H](NC(=O)c4ccccc4)c4ccccc4)C(C)=C1C3(C)C)[C@]1(OC(C)=O)CO[C@@H]1C[C@@H]2O` [PTX, Paclitaxel, reference compound], for which the “tumor growth (tumor volume) compared with the control” value in the test with A549 tumor is “significant antitumor effect”; in the test on A549T tumor it was “no significant difference in the tumor volumes between the control and PTX groups”. Further, the figures for the tumor inhibition rate in the test on A549 tumor (setting [6]) and in the test on A549T tumor (setting [6]) were 31.06% and 11.0%, respectively. For the same compound, in the test with A549T cells [1], the “effect on cell viability” value is given as “no effect on cell viability”. In addition, the “effect on cell-cycle distribution” value in the test on A549 cells [2] is given as “substantially increased the percentages of cells in G2/M phase cell-cycle arrest”; with A549T cells [4], “a large number of A549T cells were induced into tetraploids”. Further, in the test on A549 cells [3], the “percentage of late apoptotic cells (PI+/annexin V+)” value is 13.03%. In addition, the cell viability entry was “higher than 80%” with A549 cells [5] (concentration below 1 nM) and 40% with A549 cells [5] (concentrations from 100 nM to 100 000 nM).

Broadly, the cell viability is the share of living cells, or the viability signal relative to a control. Higher therefore signals better survival.
